Literature values, collected in patent publication US9293280B2, “Mixture of hydrofluoroolefine and hydrofluorocarbide to improve the internal ARC resistance in medium and high voltage electric apparatus” (priority 2012, dated 2016).

Legend:
human = conditions: average limiting content, 8 hours of work for 5 days per week without harmful effect
animal population = conditions: causing the death of 50% of an animal population

Row | SMILES | average exposure value AEV (human) [ppm] | lethal dose LD50 (animal population)
1 | O=C(C(F)(F)F)C(F)(C(F)(F)F)C(F)(F)F [C5K, decafluoro-2-methylbutan-3-one] | 1000 | greater than 200 000 ppm
2 | F/C=C/C(F)(F)F [HFO-1234ze, trans-1,3,3,3-tetrafluoro-1-propene] | 1000 | > 200 000 ppm
